These results are taken from paper PMC10374582, “A BAHD-type acyltransferase concludes the biosynthetic pathway of non-bitter glycoalkaloids in ripe tomato fruit” (Nature Communications, 2023).

One data set deals with T1, SlGAME36 (Solanum lycopersicum, UniProt A0A3Q7HQH1).
T1 construct: gene LOC101247356; pET28/pET28b, E. coli BL21 (DE3), Ni-NTA purified His-tagged protein
Kind of data set: LC-MS steady-state kinetics. It counts as biochemical. As to conditions: pH 7.5, 30 °C. The source says:
(§1) LC-MS steady-state kinetics on SlGAME36 | higher catalytic efficiency with hydroxytomatine (native substrate from tomato | hydroxysolamargine (SGA substrate from eggplant | preferred specificity toward acetyl CoA over butyryl CoA

The test system of data set [1] is C[C@@H]1CNC2(O[C@H]3C[C@H]4[C@@H]5CC[C@H]6C[C@@H](O[C@@H]7O[C@H](CO)[C@H](O[C@@H]8O[C@H](CO)[C@@H](O)[C@H](O[C@@H]9OC[C@@H](O)[C@H](O)[C@H]9O)[C@H]8O[C@@H]8O[C@H](CO)[C@@H](O)[C@H](O)[C@H]8O)[C@H](O)[C@H]7O)CC[C@]6(C)[C@H]5CC[C@]4(C)[C@H]3[C@@H]2C)C(O)C1. Kind of data set: LC-MS steady-state kinetics. It counts as biochemical, Solanum lycopersicum. As to conditions: 500 µM acetyl CoA, pH 7.5, 30 °C.
Source text: as §1

The target of the next data set is T2, SlGAME40 (Solanum lycopersicum, UniProt P10967).
T2 construct: gene ACO3; purified recombinant from E. coli
Kind of data set: LC-MS product detection, sequential one-tube assay. The note with it: acetoxytomatine formed in situ by GAME31 and GAME36; α-ketoglutarate, ascorbate, Fe2+; pH 7.5, 30 °C. It counts as biochemical.

In general, Km refers to the concentration of substrate that gives half-maximal velocity. Regarding hydroxysolamargine, the Km on SlGAME36 (500 µM acetyl CoA) is 7.89 µM.

In the case of `CC(=O)SCCNC(=O)CCNC(=O)[C@H](O)C(C)(C)COP(=O)(O)OP(=O)(O)OC[C@H]1O[C@@H](n2cnc3c(N)ncnc32)[C@H](O)[C@@H]1OP(=O)(O)O` [acetyl CoA], the Km on SlGAME36 (100 µM hydroxytomatine) was found to be 24.2 µM.

A word on the kcat: it is the number of substrate molecules converted per active site and unit of time at saturation. Turning to SlGAME36 (Solanum lycopersicum), in data set [1], the Km is 14.43 µM and the turnover number (kcat) amounted to 60.25 s⁻¹.

As to `CCCC(=O)SCCNC(=O)CCNC(=O)[C@H](O)C(C)(C)COP(=O)(O)OP(=O)(O)OC[C@H]1O[C@@H](n2cnc3c(N)ncnc32)[C@H](O)[C@@H]1OP(=O)(O)O` [butyryl CoA], at SlGAME36 (100 µM hydroxytomatine), the Km worked out at 60.4 µM.

For the molecule `CC(=O)OC1C[C@H](C)CNC12O[C@H]1C[C@H]3[C@@H]4CC[C@H]5C[C@@H](O[C@@H]6O[C@H](CO)[C@H](O[C@@H]7O[C@H](CO)[C@@H](O)[C@H](O[C@@H]8OC[C@@H](O)[C@H](O)[C@H]8O)[C@H]7O[C@@H]7O[C@H](CO)[C@@H](O)[C@H](O)[C@H]7O)[C@H](O)[C@H]6O)CC[C@]5(C)[C@H]4CC[C@]3(C)[C@H]1[C@@H]2C` (stereo partly drawn) [acetoxytomatine], the “LC-MS product detection, sequential one-tube assay” value on SlGAME40 is “Sequential assays produced explicitly the expected pathway intermediates”.
